Data published in PubChem BioAssay AID330 (DTP/NCI, 2004).
Values joined by “and” are separate entries in the source; they are usually repeats but may differ in a detail not shown here. Equal values may be shown once. Inconclusive results and toxic doses are left out.

Test system: P388 leukemia ip, CD2F1 mice, survival T/C
Experiment: NCI In Vivo Anticancer Drug Screen. Data for tumor model P388 Leukemia (intraperitoneal) in CD2F1 (CDF1) mice
Settings: endpoint: median survival time, higher = longer survival
Summary of the method: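 Mice carrying the transplanted tumor received test compound or vehicle. Survival was recorded in each group, and the value is the treated-group measurement divided by that of the vehicle-treated control group.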

[1] = dose: 100.0 mg/kg/injection, schedule: Q01DX009 (ip), vehicle: saline
[2] = dose: 50.0 mg/kg/injection, schedule: Q01DX009 (ip), vehicle: saline with Tween-80
[3] = dose: 100.0 mg/kg/injection, schedule: Q01DX009 (ip), vehicle: saline with Tween-80
[4] = dose: 200.0 mg/kg/injection, schedule: Q01DX009 (ip), vehicle: saline with Tween-80

CN(C)CCCn1c2ccccc2c2cnccc21
T/C (dose: 25.0 mg/kg/injection, schedule: Q01DX009 (ip), vehicle: saline): 100 % of control | T/C (dose: 25.0 mg/kg/injection, schedule: Q04DX003 (ip), vehicle: saline): 100 % of control | T/C (dose: 50.0 mg/kg/injection, schedule: Q01DX009 (ip), vehicle: saline): 100 % of control | T/C (dose: 50.0 mg/kg/injection, schedule: Q04DX003 (ip), vehicle: saline): 95 % of control | T/C [1]: 109 % of control | T/C (dose: 100.0 mg/kg/injection, schedule: Q04DX003 (ip), vehicle: saline): 95 % of control

C[N+](C)([O-])c1ccc(C(=O)C2CCCCC2)cc1
T/C (dose: 100.0 mg/kg/injection, schedule: Q04DX002 (ip), vehicle: saline): 101 % of control | T/C (dose: 200.0 mg/kg/injection, schedule: Q04DX002 (ip), vehicle: saline): 99 % of control | T/C (dose: 400.0 mg/kg/injection, schedule: Q04DX002 (ip), vehicle: saline): 103 % of control

O=[N+]([O-])c1ccc(N/N=C/CCl)c([N+](=O)[O-])c1
T/C (dose: 11.0 mg/kg/injection, schedule: Q04DX003 (ip), vehicle: Klucel (hydroxypropylcellulose) (HPC)): 100 % of control | T/C (dose: 11.0 mg/kg/injection, schedule: Q04DX003 (ip), vehicle: saline with Tween-80): 108 % of control | T/C (dose: 16.5 mg/kg/injection, schedule: Q04DX003 (ip), vehicle: Klucel (hydroxypropylcellulose) (HPC)): 100 % of control | T/C (dose: 16.5 mg/kg/injection, schedule: Q04DX003 (ip), vehicle: saline with Tween-80): 100 % of control | T/C (dose: 25.0 mg/kg/injection, schedule: Q04DX003 (ip), vehicle: Klucel (hydroxypropylcellulose) (HPC)): 98 % of control | T/C (dose: 25.0 mg/kg/injection, schedule: Q04DX003 (ip), vehicle: saline with Tween-80): 108 % of control | T/C (dose: 37.5 mg/kg/injection, schedule: Q04DX003 (ip), vehicle: Klucel (hydroxypropylcellulose) (HPC)): 97 % of control | T/C (dose: 37.5 mg/kg/injection, schedule: Q04DX003 (ip), vehicle: saline with Tween-80): 104 % of control

O=C1O/C(=C(/C(=O)O)c2ccc(O)cc2)C(O)=C1c1cc2c3c(c(O)cc(C4=C(O)/C(=C(\C(=O)O)c5ccc(O)cc5)OC4=O)c3c1)OC2=O
T/C (dose: 10.25 mg/kg/injection, schedule: Q01DX005 (ip), vehicle: DMSO): 94 % of control | T/C (dose: 12.0 mg/kg/injection, schedule: Q01DX005 (ip), vehicle: DMSO): 98 % of control | T/C (dose: 20.5 mg/kg/injection, schedule: Q01DX005 (ip), vehicle: DMSO): 110 % of control | T/C (dose: 24.0 mg/kg/injection, schedule: Q01DX005 (ip), vehicle: DMSO): 106 % of control | T/C (dose: 41.0 mg/kg/injection, schedule: Q01DX005 (ip), vehicle: DMSO): 106 % of control

CCNC(=NC)c1ccc(NC(=O)c2ccc(C(=O)Nc3ccc(C(=NC)NCC)cc3)cc2)cc1
T/C (dose: 1.5 mg/kg/injection, schedule: Q04DX003 (ip), vehicle: saline with Tween-80): 95 % of control | T/C (dose: 3.0 mg/kg/injection, schedule: Q01DX009 (ip), vehicle: saline with Tween-80): 172 % of control | T/C (dose: 3.0 mg/kg/injection, schedule: Q04DX003 (ip), vehicle: saline with Tween-80): 100 % of control | T/C (dose: 6.0 mg/kg/injection, schedule: Q04DX003 (ip), vehicle: saline with Tween-80): 109 % of control

CCCCCCC(=O)C(=O)c1ccc(O)cc1O
T/C (dose: 50.0 mg/kg/injection, schedule: Q01DX009 (ip), vehicle: Klucel (hydroxypropylcellulose) (HPC)): 113 % of control | T/C (dose: 100.0 mg/kg/injection, schedule: Q01DX009 (ip), vehicle: Klucel (hydroxypropylcellulose) (HPC)): 109 % of control | T/C (dose: 200.0 mg/kg/injection, schedule: Q01DX009 (ip), vehicle: Klucel (hydroxypropylcellulose) (HPC)): 109 % of control

CCN(CC)CCCC(C)Nc1ccnc2cc(N(C)C)ccc12 (centres undefined)
T/C (dose: 6.25 mg/kg/injection, schedule: Q01DX009 (ip), vehicle: saline with Tween-80): 93 % of control | T/C (dose: 12.5 mg/kg/injection, schedule: Q01DX009 (ip), vehicle: saline with Tween-80): 109 % of control | T/C (dose: 25.0 mg/kg/injection, schedule: Q01DX009 (ip), vehicle: saline with Tween-80): 111 % of control

COC1C(C)OC(OC2CC(C)(O)C(C(=O)O)c3cc4c(c(O)c32)C(=O)c2c(O)cc3c(c2C4=O)OC2OC3(C)C(O)C(N(C)C)C2O)C(OC)C1(C)OC (centres undefined)
T/C (dose: 1.25 mg/kg/injection, schedule: Q04DX003 (ip), vehicle: other): 119 % of control | T/C (dose: 2.5 mg/kg/injection, schedule: Q04DX003 (ip), vehicle: other): 113 % of control | T/C (dose: 5.0 mg/kg/injection, schedule: Q04DX003 (ip), vehicle: other): 122 % of control | T/C (dose: 20.0 mg/kg/injection, schedule: Q04DX003 (ip), vehicle: other): 155 % of control

CN1C2CCC(=O)C1CC2 (centres undefined)
T/C (dose: 6.25 mg/kg/injection, schedule: Q01DX005 (ip), vehicle: saline + Tween-80 + alcohol): 100 % of control | T/C (dose: 12.5 mg/kg/injection, schedule: Q01DX005 (ip), vehicle: saline + Tween-80 + alcohol): 100 % of control | T/C (dose: 25.0 mg/kg/injection, schedule: Q01DX005 (ip), vehicle: saline + Tween-80 + alcohol): 99 % of control

Brc1cnc2nc(Cc3ccccc3)[nH]c2c1
T/C (dose: 100.0 mg/kg/injection, schedule: Q01DX001 (ip), vehicle: saline with Tween-80): 97 % of control | T/C (dose: 200.0 mg/kg/injection, schedule: Q01DX001 (ip), vehicle: saline with Tween-80): 113 % of control | T/C (dose: 400.0 mg/kg/injection, schedule: Q01DX001 (ip), vehicle: saline with Tween-80): 97 % of control

OCCO
T/C [1]: 86 % of control and 90 % of control | T/C (dose: 200.0 mg/kg/injection, schedule: Q01DX009 (ip), vehicle: saline): 100 % of control and 86 % of control | T/C (dose: 400.0 mg/kg/injection, schedule: Q01DX009 (ip), vehicle: saline): 104 % of control and 100 % of control | T/C (dose: 0.5 % in 0.5 ml injection vol, schedule: Q01DX009 (ip), vehicle: water): 98 % of control | T/C (dose: 1.0 % in 0.5 ml injection vol, schedule: Q01DX009 (ip), vehicle: water): 99 % of control and 107 % of control | T/C (dose: 2.0 % in 0.5 ml injection vol, schedule: Q01DX009 (ip), vehicle: water): 100 % of control and 102 % of control | T/C (dose: 2.5 % in 0.5 ml injection vol, schedule: Q01DX009 (ip), vehicle: water): 106 % of control | T/C (dose: 4.0 % in 0.5 ml injection vol, schedule: Q01DX009 (ip), vehicle: water): 94 % of control | T/C (dose: 5.0 % in 0.5 ml injection vol, schedule: Q01DX009 (ip), vehicle: water): 105 % of control | T/C (dose: 10.0 % in 0.5 ml injection vol, schedule: Q01DX009 (ip), vehicle: water): 103 % of control | T/C (dose: 20.0 % in 0.5 ml injection vol, schedule: Q01DX009 (ip), vehicle: water): 108 % of control | T/C (dose: 40.0 % in 0.5 ml injection vol, schedule: Q01DX009 (ip), vehicle: water): 100 % of control | T/C (dose: 50.0 % in 0.5 ml injection vol, schedule: Q01DX009 (ip), vehicle: water): 107 % of control | T/C (dose: 80.0 % in 0.5 ml injection vol, schedule: Q01DX009 (ip), vehicle: water): 100 % of control

CC(=O)OC1CCC2(C)C(C1)CC(OC(C)=O)C1C2CC(OC(C)=O)C2(C)C(C(C)CC(=O)C(=O)c3ccccc3)CCC12 (centres undefined)
T/C [2]: 103 % of control | T/C [3]: 94 % of control | T/C [4]: 98 % of control

Cn1c(=O)c2cc(O)cnc2n(C)c1=O
T/C (dose: 100.0 mg/kg/injection, schedule: Q04DX003 (ip), vehicle: saline with Tween-80): 95 % of control | T/C (dose: 200.0 mg/kg/injection, schedule: Q04DX003 (ip), vehicle: saline with Tween-80): 91 % of control | T/C (dose: 400.0 mg/kg/injection, schedule: Q04DX003 (ip), vehicle: saline with Tween-80): 86 % of control

O=S(=O)(CCc1ccccc1)c1nc2ccccc2s1
T/C (dose: 60.0 mg/kg/injection, schedule: Q01DX005 (ip), vehicle: Klucel (hydroxypropylcellulose) (HPC)): 99 % of control | T/C (dose: 120.0 mg/kg/injection, schedule: Q01DX005 (ip), vehicle: Klucel (hydroxypropylcellulose) (HPC)): 100 % of control | T/C (dose: 240.0 mg/kg/injection, schedule: Q01DX005 (ip), vehicle: Klucel (hydroxypropylcellulose) (HPC)): 101 % of control

O=[N+]([O-])c1ccc(C=Nc2ccc3c4c(cccc24)-c2ccccc2-3)cc1
T/C [2]: 101 % of control | T/C [3]: 90 % of control | T/C [4]: 108 % of control

C=C1CCC2(C)C(O)CC3(C)C(CCC4C5(C)CCC(OC(C)=O)C(C)(C)C5CCC43C)C2C1C (centres undefined)
T/C (dose: 1.0 mg/kg/injection, schedule: Q01DX009 (ip), vehicle: alcohol): 107 % of control | T/C (dose: 2.0 mg/kg/injection, schedule: Q01DX009 (ip), vehicle: alcohol): 105 % of control | T/C (dose: 4.0 mg/kg/injection, schedule: Q01DX009 (ip), vehicle: alcohol): 115 % of control

O=C1OC(Cl)C=C1c1ccccc1 (centres undefined)
T/C (dose: 50.0 mg/kg/injection, schedule: Q01DX009 (ip), vehicle: suspension in saline): 95 % of control | T/C (dose: 100.0 mg/kg/injection, schedule: Q01DX009 (ip), vehicle: suspension in saline): 101 % of control | T/C (dose: 200.0 mg/kg/injection, schedule: Q01DX009 (ip), vehicle: suspension in saline): 101 % of control
